Here are results for seven molecules from patent publication US10307388B2, “Compositions and methods for diagnosis and treatment of inflammation” (The United States of America as represented by the …, priority 2016, dated 2019).

One series concerns IL-6, IL-18, and MCP-1. Kind of series: Serum adipokines (cytokines) in high fat diet induced obese mice after daily oral C15:0. Type of series: in vivo, C57BL/6J mice. Conditions: obese HFD mice. The procedure:
(§1) This study examined the impact of daily oral administration of synthetic pentadecanoic acid (C15:0) on inflammation in an obese mouse model. Twenty C57BL/6J mice were fed a high fat diet (HFD) (D12492, 60% kcals fat) for 8 weeks. Study mice were then divided into the following two groups of ten: vehicle controls and C15:0-treated (5 mg/kg body weight). The predicted therapeutic dose of 5 mg/kg was based upon modified diet studies in the dolphin model.

The nature of series [1]: Serum fatty acid form concentrations (complex lipidomics) in dolphins fed modified fish diet. Type of series: in vivo. Conditions: bottlenose dolphin (Tursiops truncatus), case dolphins fed modified diet (n = 20), read-out: Serum concentration, FFA (free fatty acid) form; for concentration at 0 month: Month 0 (baseline); for concentration at 1 month: Month 1; for concentration at 3 month: Month 3; for concentration at 6 month: Month 6. As for the experimental part:
Determination of serum fatty acid concentrations, including a variety of fatty acid classes, were performed by Metabolon, Inc. (Durham, N.C.) using complex lipidomics. […] The extracts were concentrated under nitrogen and reconstituted in 0.25 mL of dichloromethane:methanol (50:50) containing 10 mM ammonium acetate. The extracts were placed in vials for infusion-MS analyses, performed on a SelexION equipped Sciex 5500 QTRAP using both positive and negative mode electrospray. Each sample was subjected to 2 analyses, with IMS-MS conditions optimized for lipid classes monitored in each analysis. The 5500 QTRAP was operated in MRM mode to monitor the transitions for over 1,100 lipids from up to 14 lipid classes. Individual lipid species were quantified based on the ratio of signal intensity for target compounds to the signal intensity for an assigned internal standard of known concentration. Lipid class concentrations were calculated from the sum of all molecular species within a class, and fatty acid compositions were determined by calculating the proportion of individual fatty acids within each class.

The nature of series [2]: Total serum fatty acid concentrations in dolphins fed modified fish diet. The note with it: for Total serum fatty acid concentration: case dolphins fed modified diet (n = 20); for concentration at 0 month / concentration at 1 month / concentration at 3 month / concentration at 6 month: bottlenose dolphin (Tursiops truncatus). As for the experimental part:
This study examined the impact on inflammation by modifying fatty acid profiles through the diet in 20 MMP dolphins (“Group A dolphins”). The dolphins lived in netted enclosures within San Diego Bay. […] On blood collection days, Group A dolphins were fed one-third of their daily diet in the morning after their routine overnight fast and 2h postprandial, in-water, and trained blood samples were drawn (typically near 10:00 a.m.). An additional ten MMP dolphins (“Group B dolphins”) were maintained on the baseline capelin diet throughout the study period.
Two hour post-prandial samples were collected from Group A and Group B dolphins at baseline (month 0) and at three time points following the switch to the modified diet: months 1, 3, and 6. Dolphins were assessed for changes in serum fatty acid concentrations (total and various forms) and indices of inflammation, including erythrocyte sedimentation rate and alkaline phosphatase.
Blood was collected into BD Vacutainer serum separator tubes (for serum fatty acid profiles) or an evacuated tube containing EDTA (K3). Serum separator tubes were centrifuged at 3000 rpm for 10 minutes within 30 to 60 minutes of collection and chilled during processing until shipment. Serum was transferred to cryovials and stored at −80° C. until shipment on dry ice via overnight courier to the reference laboratories.
Total serum fatty acid profiles were performed by the Genetics Laboratories at the Kennedy Krieger Institute. […] Each run was required to pass clinical laboratory quality control before the data were released. […] Percent fatty acids in serum was used as a sturdier index to help reduce potential variability in serum among study dolphins.
Statistical analyses were conducted using World Programming System software (World Programming Ltd., Hampshire, United Kingdom). Significance was defined as a P value less than or equal to 0.05. Mean daily dietary intake of individual fatty acids were compared between pre-study and in-study diets for Group A and Group B dolphins using Wilcoxon rank sum tests. Indices of inflammation (erythrocyte sedimentation rate and alkaline phosphatase) and serum fatty acid concentrations (total and individual classes) from Month 1, 3, and 6 were compared with Month 0 for Group A and Group B dolphins using repeated measures ANOVA (MIXED model). […] Fatty acids that were independent predictors of erythrocyte sedimentation rate were then tested for linear associations with erythrocyte sedimentation rate using simple linear regressions. Fatty acids that were independent predictors of erythrocyte sedimentation rate and had inverse linear associations with these indices (defined as a P value less than or equal to 0.05 and an R^2 greater than or equal to 0.1), were characterized as fatty acids that independently predicted improved inflammation.

Series [3] concerns erythrocyte sedimentation rate. Briefly: Regression of serum fatty acid forms against erythrocyte sedimentation rate in dolphins on modified diet. Type of series: in vivo, bottlenose dolphin (Tursiops truncatus). The note with it: for Serum hexosylceramide concentration resulting in erythrocyte sedimentation rates lower than 15 mm/hr (threshold effect): FIGS. 3A-3B.
Series [4] can be described thus: Tolerability, body weight and food intake in high fat diet obese mice given C15:0. Type of series: in vivo. The procedure:
as §1
Mice in the C15:0 treatment group tolerated the test article throughout the study. […] No changes were found in body weight, percent body weight change, or food intake when comparing the study groups (not shown).

Setting [5] is: Month 0 (baseline), 2h postprandial.

Each structure is given as a SMILES string. “Also recorded” adds a separate entry of the source.

For `CCCCCCCCCCCCCCC(=O)O` [C15:0, pentadecanoic acid], the “Serum IL-6” value in the series with IL-6, IL-18, and MCP-1 (5 mg/kg daily gastric gavage, Day 84 (n = 10), vehicle control 60 ± 68) came out at 19 ± 11. The “Serum MCP-1” value in the series on IL-6, IL-18, and MCP-1 (5 mg/kg daily gastric gavage, Day 84 (n = 10), vehicle control 83 ± 31) came out at 52 ± 25. In addition, in the series with IL-6, IL-18, and MCP-1 (5 mg/kg daily gastric gavage, Day 84 (n = 10), vehicle control 206 ± 84), the “Serum IL-18” value is listed as 101 ± 86. For the same molecule, the “Inflammation and adipokines (IL-6, IL-18, and MCP-1) compared to vehicle controls” value in the series on IL-6, IL-18, and MCP-1 (5 mg/kg daily oral, 12 weeks, 5 mg/kg) is “lower; also recorded: reduced”. Also, in series [1] (serum, oral), the concentration at 0 month stood at 3.8 ± 1.3 µM, the concentration at 1 month is 4.2 ± 1.5 µM, the concentration at 3 month amounted to 3.6 ± 0.8 µM and the concentration at 6 month came to 3.8 ± 1.3 µM. In addition, in series [2] (Month 1, 2h postprandial), the “Total serum fatty acid concentration” value was found to be 94 ± 33 µM. Moreover, the “Serum cholesterol ester concentration resulting in erythrocyte sedimentation rates lower than 15 mm/hr (threshold effect)” value in series [3] (FIGS. 2A-2B) was “greater than 60 uM”. In series [4] (mouse, in vivo, 5 mg/kg), the “Early mortalities in treated group” value is “no early mortalities” and the “Tolerability of the test article” value was “tolerated”. Besides, in series [4] (obese HFD mice, 5 mg/kg daily gastric gavage, 12 weeks), the “Body weight, percent body weight change, or food intake vs control group” value is given as “No changes”.
With `CCCCCCCCCCCCCCCC(=O)O` [C16:0, palmitic acid], the “Total serum fatty acid concentration” value in series [2] (setting [5]) was 1445 ± 194 µM; in series [2] (Month 1, 2h postprandial), 1372 ± 199 µM; in series [2] (Month 3, 2h postprandial), 1505 ± 221 µM; in series [2] (Month 6, 2h postprandial), 1450 ± 155 µM.
As for `CCCCCCCCCCCCCCCCC(=O)O` [C17:0, heptadecanoic acid], the “Total serum fatty acid concentration” value in series [2] (Month 1, 2h postprandial) came to 82 ± 21 µM. For the same molecule, in series [3] (FIGS. 2A-2B), the “Serum phosphatidylcholine concentration resulting in erythrocyte sedimentation rates lower than 15 mm/hr (threshold effect)” value is “greater than 30 uM”.
`CCCCCCCCCCCCCCCCCCCC(=O)O` [C20:0, arachidic acid]: in series [1] (in vivo), the concentration at 0 month came to 6.6 ± 2.5 µM, the concentration at 1 month turned out to be 4.4 ± 1.4 µM, the concentration at 3 month worked out at 5 ± 2.3 µM and the concentration at 6 month was 17 ± 10 µM. In series [2] (in vivo), this molecule came in with a concentration at 0 month of 94 ± 22 µM, a concentration at 1 month of 87 ± 17 µM, a concentration at 3 month of 98 ± 17 µM and a concentration at 6 month of 96 ± 15 µM. The “Serum hexosylceramide concentration resulting in erythrocyte sedimentation rates lower than 15 mm/hr (threshold effect)” value in series [3] is given as “greater than 0.20 uM”.
`CCCCCCCCCCCCCCCCCCCCCC(=O)O` [C22:0, behenic acid]: the “Total serum fatty acid concentration” value in series [2] (setting [5]) worked out at 23 ± 4 µM; in series [2] (Month 1, 2h postprandial), 21 ± 3 µM; in series [2] (Month 3, 2h postprandial) it was 23 ± 3 µM; in series [2] (Month 6, 2h postprandial), 24 ± 5 µM. Moreover, the “Serum hexosylceramide concentration resulting in erythrocyte sedimentation rates lower than 15 mm/hr (threshold effect)” value in series [3] is reported as “greater than 0.11 uM”.
In series [2] (serum, oral), `CCCCCCCCCCCCCCCCCCCCCCCC(=O)O` [C24:0, lignoceric acid] displayed a concentration at 0 month of 18 ± 3 µM, a concentration at 1 month of 17 ± 3 µM, a concentration at 3 month of 18 ± 3 µM and a concentration at 6 month of 18 ± 3 µM.
As to `CCCCCCCCCCCCCCCCCCCCCCCCCC(=O)O` [C26:0], the “Total serum fatty acid concentration” value turned out to be 1.0 ± 0.1 µM in series [2] (setting [5]); 0.8 ± 0.1 µM in series [2] (Month 1, 2h postprandial); 0.9 ± 0.1 µM in series [2] (Month 3, 2h postprandial); 0.9 ± 0.1 µM in series [2] (Month 6, 2h postprandial).
